This is an account of results in patent US5622951A, “Piperazine derivatives as 5-HT antagonists” (John Wyeth & Brother Ltd., priority 1993, dated 1997).

The target in assay [1] is T1, 5-HT1A receptor (Rattus norvegicus, UniProt P19327).
T1 construct: rat hippocampal membrane homogenate; from tissue; host or cells: rat hippocampus, membrane homogenate
T1 sequence (P19327 1-422): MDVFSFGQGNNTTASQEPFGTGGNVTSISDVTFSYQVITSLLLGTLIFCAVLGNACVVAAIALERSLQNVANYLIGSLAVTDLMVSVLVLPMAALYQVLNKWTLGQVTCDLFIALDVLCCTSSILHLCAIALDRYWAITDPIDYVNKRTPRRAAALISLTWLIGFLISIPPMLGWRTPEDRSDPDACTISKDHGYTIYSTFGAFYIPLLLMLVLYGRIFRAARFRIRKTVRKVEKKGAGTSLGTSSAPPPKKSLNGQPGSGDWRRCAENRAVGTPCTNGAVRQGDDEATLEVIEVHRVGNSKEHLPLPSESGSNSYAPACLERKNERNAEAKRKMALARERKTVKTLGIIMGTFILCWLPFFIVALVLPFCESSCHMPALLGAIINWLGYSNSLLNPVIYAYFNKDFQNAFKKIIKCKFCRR
Briefly: 5-HT1A receptor binding in rat hippocampal membrane homogenate (Alexander and Wood). As to the method: The compounds of the invention were tested for 5-HT1A receptor binding activity in rat hippocampal membrane homogenate by the method of B S Alexander and M D Wood, J Pharm Pharmacol, 1988, 40, 888-891.

The target in assay [2] is T2, 5-HT1A receptor (Cavia porcellus, UniProt A0A286Y074).
T2 construct: in the guinea-pig ileum in vitro; from tissue; host or cells: guinea-pig ileum, isolated
T2 sequence (A0A286Y074 1-421): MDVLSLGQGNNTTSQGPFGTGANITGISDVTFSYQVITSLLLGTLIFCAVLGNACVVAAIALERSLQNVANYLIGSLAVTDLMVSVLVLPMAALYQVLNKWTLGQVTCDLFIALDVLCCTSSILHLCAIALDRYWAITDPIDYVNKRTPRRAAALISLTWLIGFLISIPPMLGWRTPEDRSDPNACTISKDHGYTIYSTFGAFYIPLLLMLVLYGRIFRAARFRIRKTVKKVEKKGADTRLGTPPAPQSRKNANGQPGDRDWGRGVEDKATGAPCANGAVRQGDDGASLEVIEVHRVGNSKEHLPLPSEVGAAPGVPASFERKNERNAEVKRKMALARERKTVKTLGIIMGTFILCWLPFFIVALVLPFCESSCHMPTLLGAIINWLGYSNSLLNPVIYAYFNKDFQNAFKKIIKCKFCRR
Put plainly: 5-HT1A receptor antagonism: antagonism of 5-carboxamidotryptamine in the guinea-pig ileum in vitro (Fozard et al). The conditions noted are these: read-out: pA2, 5-HT1A receptor antagonism (converted). As to the method:
The compounds are tested for 5-HT1A receptor antagonism activity in a test involving the antagonism of 5-carboxamidotryptamine in the guinea-pig ileum in vitro (based upon the procedure of Fozard et at, Br J Pharmac, 1985, 86, 601P).

Each structure is given as a SMILES string.

What is called IC50 is the concentration at which inhibition is half-maximal.

Take `COc1ccccc1N1CCN([C@H]2CC[C@H](c3ccccc3)CC2)CC1` [Example 1 (trans), trans-1-(2-methoxyphenyl)-4-(1-phenylcyclohex-4-yl)piperazine]: the IC50 on 5-HT1A receptor [1] turned out to be 0.6 nM. Further, the Kb on 5-HT1A receptor [2] was 0.794 nM.

At 5-HT1A receptor [1], `COc1ccccc1N1CCN(C2CC=C(c3ncc(C)cc3C)CC2)CC1` (stereo not shown) [Example 19, 1-(2-Methoxyphenyl)-4-[1-(3,5-dimethylpyridin-2-yl)-cyclohex-1-en-4-yl]piperazine] showed an IC50 of 1.84 nM.

Take `COc1ccccc1N1CCN([C@H]2CC[C@H](c3ncc(C)cc3C)CC2)CC1` [Example 20, Trans-1-(2-Methoxyphenyl)-4-[1-(3,5-dimethylpyridin-2-yl)-cyclohex-4-yl]piperazine]: the 50% inhibitory concentration (IC50) at 5-HT1A receptor [1] stood at 1.6 nM.
